Data: ChEMBL document CHEMBL5137095, “N-Benzyl Benzamide Derivatives as Selective Sub-Nanomolar Butyrylcholinesterase Inhibitors for Possible Treatment in Advanced Alzheimer's Disease” (J Med Chem, 2022)

Experiments:
[1] = Plasma concentration in ICR mouse at 10 mg/kg, IG measured at 0.5 hrs by LC-MS analysis; format: ADME, organism-based; conditions: po
[2] = Plasma concentration in ICR mouse at 10 mg/kg, IG measured at 2 hrs by LC-MS analysis; format: ADME, organism-based; conditions: po
[3] = Cytotoxicity against mouse BV-2 cells assessed as cell survival rate at 10 uM by MTT assay; format: toxicity, cell-based; conditions: read-out: Activity
[4] = n-octanol-water partition coefficient, log P of the compound by HPLC analysis; format: physicochemical
PC-12 [5] = assay: Neuroprotective activity against H2O2-induced cell damage in rat PC-12 cells assessed as survival rate at 5 to 10 uM pretreated for 2 hrs followed by H2O2 addition and measured after 24 hrs by MTT assay; format: functional; conditions: dose 5-10 µM, time 26 hrs
[6] = Brain concentration in ICR mouse at 10 mg/kg, IG measured at 0.25 hrs by LC-MS analysis; format: ADME, organism-based; conditions: po, read-out: Ct
[7] = Permeability of compound incubated for 18 hrs by PAMPA-BBB assay; format: ADME; conditions: read-out: permeability
[8] = Elimination half life in Sprague-Dawley rat at 10 mg/kg, IG measured after 48 hrs by LC-MS analysis; format: ADME, organism-based; conditions: in vivo, po, read-out: beta t1/2 (converted)
Cholinesterase [9] = target: T1, Cholinesterase (Homo sapiens, UniProt P06276); assay: Inhibition of human BChE assessed as inhibition constant
T1 sequence (P06276 whole entry): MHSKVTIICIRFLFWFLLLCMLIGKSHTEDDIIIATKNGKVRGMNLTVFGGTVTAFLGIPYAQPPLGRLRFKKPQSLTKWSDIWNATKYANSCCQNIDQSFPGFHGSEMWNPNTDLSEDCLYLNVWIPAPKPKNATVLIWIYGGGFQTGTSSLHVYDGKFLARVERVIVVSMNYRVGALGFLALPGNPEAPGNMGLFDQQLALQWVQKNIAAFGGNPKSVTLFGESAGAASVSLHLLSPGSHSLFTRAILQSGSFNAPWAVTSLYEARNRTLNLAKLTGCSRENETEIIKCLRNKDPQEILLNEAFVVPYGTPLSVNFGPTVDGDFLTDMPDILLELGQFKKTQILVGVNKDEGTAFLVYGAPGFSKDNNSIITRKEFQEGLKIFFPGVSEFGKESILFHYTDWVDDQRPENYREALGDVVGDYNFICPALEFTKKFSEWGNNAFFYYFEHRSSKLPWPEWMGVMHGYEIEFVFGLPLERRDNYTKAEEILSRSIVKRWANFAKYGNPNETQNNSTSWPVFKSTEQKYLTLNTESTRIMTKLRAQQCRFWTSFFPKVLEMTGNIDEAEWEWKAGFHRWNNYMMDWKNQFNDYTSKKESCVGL

[10] = Cmax in Sprague-Dawley rat at 10 mg/kg, IG measured after 48 hrs by LC-MS analysis; format: ADME, organism-based; set-up: time 48 hrs, dose 10 mg/kg, route ig; conditions: in vivo, po
PC-12 [11] = assay: Cytotoxicity against rat PC-12 cells assessed as reduction in cell viability at 10 uM by MTT assay; format: toxicity, cell-based; conditions: pc-12, 10 µM
[12] = Microsomal stability in human liver microsomes assessed as half life measured after 120 mins; format: ADME, Microsome
[13] = Cmax in Sprague-Dawley rat at 10 mg/kg, iv measured after 48 hrs by LC-MS analysis; format: ADME, organism-based; set-up: dose 10 mg/kg, time 48 hrs, route iv; conditions: in vivo
SH-SY5Y [14] = assay: Cytotoxicity against human SH-SY5Y cells assessed as reduction in cell viability at 20 uM by MTT assay; format: toxicity, cell-based
SH-SY5Y [15] = assay: Neuroprotective activity against amyloid beta (1 to 42)-induced cell damage in human SH-SY5Y cells assessed as cell survival rate at 25 uM pretreated for 2 hrs followed by amyloid beta (1 to 42) addition and measured after 24 hrs by MTT assay; format: functional; conditions: time 26 hrs
[16] = Tmax in Sprague-Dawley rat at 10 mg/kg, IG measured after 48 hrs by LC-MS analysis; format: ADME, organism-based; conditions: in vivo, po
Cholinesterase [17] = target: T1, Cholinesterase; assay: Binding affinity to human BChE assessed as dissociation constant by surface plasmon resonance assay
PC-12 [18] = assay: Cytotoxicity against rat PC-12 cells assessed as reduction in cell viability at 20 uM by MTT assay; format: toxicity, cell-based; conditions: pc-12, 20 µM
[19] = Acute toxicity in ICR mouse assessed as increase in body weight at 1000 mg/kg, po measured after 14 days; format: organism-based; conditions: in vivo, 336 h, time 14 day
[20] = Oral bioavailability in Sprague-Dawley rat at 10 mg/kg measured after 48 hrs by LC-MS analysis; format: ADME, organism-based; conditions: in vivo
[21] = Cytotoxicity against human SH-SY5Y cells assessed as cell survival rate at 10 uM by MTT assay; format: toxicity, cell-based; conditions: read-out: Activity
[22] = Brain concentration in ICR mouse at 10 mg/kg, IG measured at 1 hr by LC-MS analysis; format: ADME, organism-based; conditions: po, read-out: Ct
Cholinesterase [23] = target: T1, Cholinesterase; assay: Inhibition of human BChE using acetylthiocholine iodide or butyrylthiocholine iodide as substrate preincubated for 5 mins followed by substrate addition by Ellman's method
[24] = Acute toxicity in ICR mouse assessed as effect on consumption of water and food at 1000 mg/kg, po measured after 14 days; format: organism-based; conditions: in vivo, 336 h, time 14 day
[25] = Acute toxicity in ICR mouse assessed as death at 1000 mg/kg, po measured after 4 hrs; format: organism-based; conditions: in vivo
[26] = Elimination half life in Sprague-Dawley rat at 10 mg/kg, iv measured after 48 hrs by LC-MS analysis; format: ADME, organism-based; conditions: in vivo, read-out: beta t1/2 (converted)
BV-2 [27] = assay: Cytotoxicity against mouse BV-2 cells assessed as reduction in cell viability at 10 uM by MTT assay; format: toxicity, cell-based; conditions: bv-2, 10 µM
HT-22 [28] = assay: Cytotoxicity against mouse HT-22 cells assessed as reduction in cell viability at 10 uM by MTT assay; format: toxicity, cell-based; conditions: ht-22, 10 µM
[29] = Tmax in Sprague-Dawley rat at 10 mg/kg, iv measured after 48 hrs by LC-MS analysis; format: ADME, organism-based; conditions: in vivo
[30] = AUC (0 to infinitive) in Sprague-Dawley rat at 10 mg/kg, IG measured after 48 hrs by LC-MS analysis; format: ADME, organism-based; set-up: dose 10 mg/kg, time 48 hrs, route ig; conditions: in vivo, po
[31] = Brain concentration in ICR mouse at 10 mg/kg, IG measured at 6 hrs by LC-MS analysis; format: ADME, organism-based; conditions: po, read-out: Ct
[32] = Brain concentration in ICR mouse at 10 mg/kg, IG measured at 4 hrs by LC-MS analysis; format: ADME, organism-based; conditions: po, read-out: Ct
SH-SY5Y [33] = assay: Cytotoxicity against human SH-SY5Y cells assessed as reduction in cell viability at 10 uM by MTT assay; format: toxicity, cell-based
[34] = Cytotoxicity against rat PC-12 cells assessed as cell survival rate at 10 uM by MTT assay; format: toxicity, cell-based; conditions: read-out: Activity
[35] = Cytotoxicity against mouse HT-22 cells assessed as cell survival rate at 10 uM by MTT assay; format: toxicity, cell-based; conditions: read-out: Activity
[36] = Plasma concentration in ICR mouse at 10 mg/kg, po measured at 0.25 hrs by LC-MS analysis; format: ADME, organism-based
[37] = Plasma concentration in ICR mouse at 10 mg/kg, IG measured at 4 hrs by LC-MS analysis; format: ADME, organism-based; conditions: po
[38] = Brain concentration in ICR mouse at 10 mg/kg, IG measured at 2 hrs by LC-MS analysis; format: ADME, organism-based; conditions: po, read-out: Ct
SH-SY5Y [39] = assay: Neuroprotective activity against amyloid beta (1 to 42)-induced cell damage in human SH-SY5Y cells assessed as cell survival at 2 uM pretreated for 2 hrs followed by amyloid beta (1 to 42) addition and measured after 24 hrs by MTT assay; format: functional; conditions: time 26 hrs, read-out: Activity
[40] = AUC (0 to infinitive) in Sprague-Dawley rat at 10 mg/kg, iv measured after 48 hrs by LC-MS analysis; format: ADME, organism-based; set-up: time 48 hrs, dose 10 mg/kg, route iv; conditions: in vivo
[41] = Brain concentration in ICR mouse at 10 mg/kg, IG measured at 0.5 hrs by LC-MS analysis; format: ADME, organism-based; conditions: po, read-out: Ct
[42] = Plasma concentration in ICR mouse at 10 mg/kg, po measured at 1 hr by LC-MS analysis; format: ADME, organism-based
[43] = Plasma concentration in ICR mouse at 10 mg/kg, IG measured at 6 hrs by LC-MS analysis; format: ADME, organism-based; conditions: po
HT-22 [44] = assay: Cytotoxicity against mouse HT-22 cells assessed as reduction in cell viability at 20 uM by MTT assay; format: toxicity, cell-based; conditions: ht-22, 20 µM
BV-2 [45] = assay: Cytotoxicity against mouse BV-2 cells assessed as reduction in cell viability at 20 uM by MTT assay; format: toxicity, cell-based; conditions: bv-2, 20 µM

Compound: CCN(CC)Cc1ccccc1CNC(=O)c1cccc(NC(=O)c2ccc(F)cc2)c1
- concentration at 0.5 h [1]: 30.2 ng/mL
- concentration at 2 h [2]: 18.4 ng/mL
- viability at 10 µM [3]: > 70%
- logP [4]: 1.7
- Activity (PC-12 [5]): 61.7%
- concentration at 0.25 h [6]: 25.4 ng/g
- Papp at 18 h [7]: 10.2 ×10⁻⁶ cm/s
- half-life [8]: 28.1 h
- Ki (Cholinesterase [9]): 0.61 nM
- Cmax [10]: 36.4 ng/mL
- Activity (PC-12 [11]): Non-Toxic
- half-life [12]: 1.55 h
- Cmax [13]: 1640 ng/mL
- Activity (SH-SY5Y [14]): Non-Toxic
- Activity (SH-SY5Y [15]): 64.12%
- Tmax [16]: 0.63 h
- Kd (Cholinesterase [17]): 0.37 nM
- Activity (PC-12 [18]): Non-Toxic
- Activity [19]: Non-Toxic
- bioavailability [20]: 21.7%
- viability at 10 µM [21]: > 70%
- concentration at 1 h [22]: 37.5 ng/g
- IC50 (Cholinesterase [23]): 0.08 nM
- Activity [24]: Non-Toxic
- Activity [25]: Non-Toxic
- half-life [26]: 17.2 h
- Activity (BV-2 [27]): Non-Toxic
- Activity (HT-22 [28]): Non-Toxic
- Tmax [29]: 6 min
- AUC(0-inf) [30]: 497 ng·h/mL
- concentration at 6 h [31]: 15.3 ng/g
- concentration at 4 h [32]: 16.4 ng/g
- Activity (SH-SY5Y [33]): Non-Toxic
- viability at 10 µM [34]: > 70%
- viability at 10 µM [35]: > 70%
- concentration at 0.25 h [36]: 25.7 ng/mL
- concentration at 4 h [37]: 17.4 ng/mL
- concentration at 2 h [38]: 17.7 ng/g
- viability at 2 µM (SH-SY5Y [39]): 68%
- AUC(0-inf) [40]: 2170 ng·h/mL
- concentration at 0.5 h [41]: 26.8 ng/g
- concentration at 1 h [42]: 20.9 ng/mL
- concentration at 6 h [43]: 2.95 ng/mL
- Activity (HT-22 [44]): Non-Toxic
- Activity (BV-2 [45]): Non-Toxic
